Our source for the IC50 values is patent US20090042964A1, “AMINO-5-[SUBSTITUTED-4-(DIFLUOROMETHOXY)PHENYL]-5-PHENYLIMIDAZOLONE COMPOUNDS AS BETA-SECRETASE INHIBITORS” (Wyeth, priority 2007, published 2009).

This test addresses human BACE1 (Homo sapiens, UniProt P56817). Nature of the test: Fluorescent kinetic assay, evaluation of BACE1 binding affinity of test compounds. The class given is biochemical. Conditions: 10 nM human BACE1, 25 μM substrate WABC-6, pH 4.5, room temperature; read-out: BACE1 IC50. The method in brief: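 Kinetic fluorescence assay: enzyme added last to inhibitor and substrate mix, reading started immediately; substrate at 100 μM working dilution (25 μL in 100 μL total). Buffer 66.7 mM Na-acetate pH 4.5 with 0.0667% CHAPS for inhibitor and enzyme dilutions; enzyme stock quantified at 280 nm.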

human BACE1, sequence (P56817 46-501): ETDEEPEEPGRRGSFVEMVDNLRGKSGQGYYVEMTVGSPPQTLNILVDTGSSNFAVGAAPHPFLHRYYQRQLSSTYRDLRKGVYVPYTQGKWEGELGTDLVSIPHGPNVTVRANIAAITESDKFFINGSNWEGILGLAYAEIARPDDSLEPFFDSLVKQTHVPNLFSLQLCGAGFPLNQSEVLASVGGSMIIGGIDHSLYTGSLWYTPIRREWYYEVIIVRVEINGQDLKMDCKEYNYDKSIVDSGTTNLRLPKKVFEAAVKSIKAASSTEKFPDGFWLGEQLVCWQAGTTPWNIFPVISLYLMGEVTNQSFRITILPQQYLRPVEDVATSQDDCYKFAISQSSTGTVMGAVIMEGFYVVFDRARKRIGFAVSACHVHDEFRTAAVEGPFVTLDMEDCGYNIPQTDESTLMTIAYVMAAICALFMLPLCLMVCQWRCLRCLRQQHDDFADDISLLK

For the molecule `CCc1cc([C@@]2(c3ccc(F)c(C#CCC(C)C)c3)N=C(N)N(C)C2=O)ccc1OC(F)F` [Example 151, (5S)-2-Amino-5-[4-(difluoromethoxy)-3-ethylphenyl]-5-[4-fluoro-3-(4-methylpent-1-yn-1-yl)phenyl]-3-methyl-3,5-dihydro-4H-imidazol-4-one], the half-maximal inhibitory concentration (IC50) is above 1 µM. As for `CCc1cc(C2(c3ccc(F)c(C#CCOC)c3)N=C(N)N(C)C2=O)ccc1OC(F)F` (stereo not drawn) [Example 152, 2-Amino-5-[4-(difluoromethoxy)-3-ethylphenyl]-5-[4-fluoro-3-(3-methoxyprop-1-yn-1-yl)phenyl]-3-methyl-3,5-dihydro-4H-imidazol-4-one], the IC50 was below 0.1 µM. `CCc1cc(C2(c3ccc(F)c(C#CC(C)C)c3)N=C(N)N(C)C2=O)ccc1OC(F)F` (stereo not drawn) [Example 153, 2-Amino-5-[4-(difluoromethoxy)-3-ethylphenyl]-5-[4-fluoro-3-(3-methylbut-1-yn-1-yl)phenyl]-3-methyl-3,5-dihydro-4H-imidazol-4-one]: the IC50 is below 0.1 µM. Take `CCc1cc([C@]2(c3ccc(F)c(C#CC(C)C)c3)N=C(N)N(C)C2=O)ccc1OC(F)F` [Example 154, (5R)-2-Amino-5-[4-(difluoromethoxy)-3-ethylphenyl]-5-[4-fluoro-3-(3-methylbut-1-yn-1-yl)phenyl]-3-methyl-3,5-dihydro-4H-imidazol-4-one]: the IC50 is below 0.1 µM.

Turning to `CCc1cc([C@@]2(c3ccc(F)c(C#CC(C)C)c3)N=C(N)N(C)C2=O)ccc1OC(F)F` [Example 155, (5S)-2-Amino-5-[4-(difluoromethoxy)-3-ethylphenyl]-5-[4-fluoro-3-(3-methylbut-1-yn-1-yl)phenyl]-3-methyl-3,5-dihydro-4H-imidazol-4-one], the IC50 lay within 0.11 to 1 µM. `CCc1cc([C@]2(c3ccc(F)c(C#CCOC)c3)N=C(N)N(C)C2=O)ccc1OC(F)F` [Example 156, (5R)-2-Amino-5-[4-(difluoromethoxy)-3-ethylphenyl]-5-[4-fluoro-3-(3-methoxyprop-1-yn-1-yl)phenyl]-3-methyl-3,5-dihydro-4H-imidazol-4-one]: the IC50 is below 0.1 µM. Regarding `CCc1cc([C@@]2(c3ccc(F)c(C#CCOC)c3)N=C(N)N(C)C2=O)ccc1OC(F)F` [Example 157, (5S)-2-Amino-5-[4-(difluoromethoxy)-3-ethylphenyl]-5-[4-fluoro-3-(3-methoxyprop-1-yn-1-yl)phenyl]-3-methyl-3,5-dihydro-4H-imidazol-4-one], the IC50 fell in the range of 0.11 to 1 µM. The value for `CCc1cc(C2(c3cccc(C#CCF)c3)N=C(N)N(C)C2=O)ccc1OC(F)F` (stereo not drawn) [Example 158, 2-Amino-5-[4-(difluoromethoxy)-3-ethylphenyl]-5-[3-(3-fluoroprop-1-yn-1-yl)phenyl]-3-methyl-3,5-dihydro-4H-imidazol-4-one] was below 0.1 µM. `CCc1cc(C2(c3ccc(F)c(C#CCF)c3)N=C(N)N(C)C2=O)ccc1OC(F)F` (stereo not drawn) [Example 159, 2-Amino-5-[4-(difluoromethoxy)-3-ethylphenyl]-5-[4-fluoro-3-(3-fluoroprop-1-yn-1-yl)phenyl]-3-methyl-3,5-dihydro-4H-imidazol-4-one]: the IC50 is below 0.1 µM. Consider `CCc1cc([C@@]2(c3cccc(C#CCF)c3)N=C(N)N(C)C2=O)ccc1OC(F)F` [Example 160, (5R)-2-Amino-5-[4-(difluoromethoxy)-3-ethylphenyl]-5-[3-(3-fluoroprop-1-yn-1-yl)phenyl]-3-methyl-3,5-dihydro-4H-imidazol-4-one], for which the IC50 was above 1 µM. Turning to `CCc1cc([C@]2(c3cccc(C#CCF)c3)N=C(N)N(C)C2=O)ccc1OC(F)F` [Example 161, (5S)-2-Amino-5-[4-(difluoromethoxy)-3-ethylphenyl]-5-[3-(3-fluoroprop-1-yn-1-yl)phenyl]-3-methyl-3,5-dihydro-4H-imidazol-4-one], the IC50 is below 0.1 µM.

Consider `CCc1cc([C@]2(c3ccc(F)c(C#CCF)c3)N=C(N)N(C)C2=O)ccc1OC(F)F` [Example 162, (5R)-2-Amino-5-[4-(difluoromethoxy)-3-ethylphenyl]-5-[4-fluoro-3-(3-fluoroprop-1-yn-1-yl)phenyl]-3-methyl-3,5-dihydro-4H-imidazol-4-one], for which the IC50 is below 0.1 µM. Regarding `CCc1cc([C@@]2(c3ccc(F)c(C#CCF)c3)N=C(N)N(C)C2=O)ccc1OC(F)F` [Example 163, (5S)-2-Amino-5-[4-(difluoromethoxy)-3-ethylphenyl]-5-[4-fluoro-3-(3-fluoroprop-1-yn-1-yl)phenyl]-3-methyl-3,5-dihydro-4H-imidazol-4-one], the IC50 was 0.11 to 1 µM. On to `C#Cc1cccc(C2(c3ccc(OC(F)F)c(C4CC4)c3)N=C(N)N(C)C2=O)c1` (stereo not drawn) [Example 167, 2-amino-4-(3-cyclopropyl-4-(difluoromethoxy)phenyl)-4-(3-ethynylphenyl)-1-methyl-1H-imidazol-5(4H)-one], for which the IC50 was below 0.1 µM. With `CC#Cc1cccc(C2(c3ccc(OC(F)F)c(C4CC4)c3)N=C(N)N(C)C2=O)c1` (stereo not drawn) [Example 168, 2-amino-4-(3-cyclopropyl-4-(difluoromethoxy)phenyl)-1-methyl-4-(3-(prop-1-ynyl)phenyl)-1H-imidazol-5(4H)-one], the IC50 was below 0.1 µM. `CCC#Cc1cccc(C2(c3ccc(OC(F)F)c(C4CC4)c3)N=C(N)N(C)C2=O)c1` (stereo not drawn) [Example 171, 2-amino-4-(3-(but-1-ynyl)phenyl)-4-(3-cyclopropyl-4-(difluoromethoxy)phenyl)-1-methyl-1H-imidazol-5(4H)-one]: the 50% inhibitory concentration (IC50) is below 0.1 µM. Take `CCCC#Cc1cccc(C2(c3ccc(OC(F)F)c(C4CC4)c3)N=C(N)N(C)C2=O)c1` (stereo not drawn) [Example 172, 2-amino-4-(3-cyclopropyl-4-(difluoromethoxy)phenyl)-1-methyl-4-(3-(pent-1-ynyl)phenyl)-1H-imidazol-5(4H)-one]: the IC50 was in the range of 0.11 to 1 µM.

On to `CC(C)C#Cc1cccc(C2(c3ccc(OC(F)F)c(C4CC4)c3)N=C(N)N(C)C2=O)c1` (stereo not drawn) [Example 173, 2-amino-4-(3-cyclopropyl-4-(difluoromethoxy)phenyl)-1-methyl-4-(3-(3-methylbut-1-ynyl)phenyl)-1H-imidazol-5(4H)-one], for which the IC50 was below 0.1 µM. For `CN1C(=O)C(c2cccc(C#CC3CC3)c2)(c2ccc(OC(F)F)c(C3CC3)c2)N=C1N` (stereo not drawn) [Example 176, 2-amino-4-(3-cyclopropyl-4-(difluoromethoxy)phenyl)-4-(3-(cyclopropylethynyl)phenyl)-1-methyl-1H-imidazol-5(4H)-one], the IC50 was below 0.1 µM. In the case of `CN1C(=O)C(c2cccc(C#CC(C)(C)O)c2)(c2ccc(OC(F)F)c(C3CC3)c2)N=C1N` (stereo not drawn) [Example 179, 2-amino-4-(3-cyclopropyl-4-(difluoromethoxy)phenyl)-4-(3-(3-hydroxy-3-methylbut-1-ynyl)phenyl)-1-methyl-1H-imidazol-5(4H)-one], the half-inhibitory concentration (IC50) was below 0.1 µM. Regarding `COCC#Cc1cccc(C2(c3ccc(OC(F)F)c(C4CC4)c3)N=C(N)N(C)C2=O)c1` (stereo not drawn) [Example 180, 2-amino-4-(3-cyclopropyl-4-(difluoromethoxy)phenyl)-4-(3-(3-methoxyprop-1-ynyl)phenyl)-1-methyl-1H-imidazol-5(4H)-one], the IC50 was below 0.1 µM. On to `COCCC#Cc1cccc(C2(c3ccc(OC(F)F)c(C4CC4)c3)N=C(N)N(C)C2=O)c1` (stereo not drawn) [Example 183, 2-amino-4-(3-cyclopropyl-4-(difluoromethoxy)phenyl)-4-(3-(4-methoxybut-1-ynyl)phenyl)-1-methyl-1H-imidazol-5(4H)-one], for which the IC50 is below 0.1 µM. To `COCCCC#Cc1cccc(C2(c3ccc(OC(F)F)c(C4CC4)c3)N=C(N)N(C)C2=O)c1` (stereo not drawn) [Example 186, 2-amino-4-(3-cyclopropyl-4-(difluoromethoxy)phenyl)-4-(3-(5-methoxypent-1-ynyl)phenyl)-1-methyl-1H-imidazol-5(4H)-one] belongs below 0.1 µM. On to `CN1C(=O)C(c2cccc(C3CC3)c2)(c2ccc(OC(F)F)c(C3CC3)c2)N=C1N` (stereo not drawn) [Example 187, 2-amino-4-(3-cyclopropyl-4-(difluoromethoxy)phenyl)-4-(3-cyclopropylphenyl)-1-methyl-1H-imidazol-5(4H)-one], for which the IC50 was 0.11 to 1 µM.

Regarding `CN1C(=O)C(c2cccc(C#CCCCO)c2)(c2ccc(OC(F)F)c(C3CC3)c2)N=C1N` (stereo not drawn) [Example 188, 2-amino-4-(3-cyclopropyl-4-(difluoromethoxy)phenyl)-4-(3-(5-hydroxypent-1-ynyl)phenyl)-1-methyl-1H-imidazol-5(4H)-one], the IC50 is below 0.1 µM. Regarding `CN1C(=O)C(c2cccc(C#CCCCF)c2)(c2ccc(OC(F)F)c(C3CC3)c2)N=C1N` (stereo not drawn) [Example 191, 2-amino-4-(3-cyclopropyl-4-(difluoromethoxy)phenyl)-4-(3-(5-fluoropent-1-ynyl)phenyl)-1-methyl-1H-imidazol-5(4H)-one], the IC50 is below 0.1 µM. For the molecule `CN1C(=O)C(c2ccc(OC(F)F)c(C3CC3)c2)(c2ccc(OC(F)F)c(C3CC3)c2)N=C1N` [Example 194, 2-amino-4,4-bis(3-cyclopropyl-4-(difluoromethoxy)phenyl)-1-methyl-1H-imidazol-5(4H)-one], the IC50 was in the range of 0.11 to 1 µM. In the case of `Cc1cc(C2(c3ccc(F)c(OC(C)C)c3)N=C(N)N(C)C2=O)ccc1OC(F)F` (stereo not drawn) [Example 195, 2-amino-5-[4-(difluoromethoxy)-3-methylphenyl]-5-(4-fluoro-3-isopropoxyphenyl)-3-methyl-3,5-dihydro-4H-imidazol-4-one], the 50% inhibitory concentration (IC50) lay within 0.11 to 1 µM. To `Cc1cc(C2(c3cccc(C#CCF)c3)N=C(N)N(C)C2=O)ccc1OC(F)F` (stereo not drawn) [Example 196, 2-amino-5-[4-(difluoromethoxy)-3-methylphenyl]-5-[3-(3-fluoroprop-1-yn-1-yl)phenyl]-3-methyl-3,5-dihydro-4H-imidazol-4-one] belongs below 0.1 µM. For `Cc1cc([C@@]2(c3cccc(C#CCF)c3)N=C(N)N(C)C2=O)ccc1OC(F)F` [Example 200, (5R)-2-amino-5-[4-(difluoromethoxy)-3-methylphenyl]-5-[3-(3-fluoroprop-1-yn-1-yl)phenyl]-3-methyl-3,5-dihydro-4H-imidazol-4-one], the IC50 was above 1 µM.

The term IC50 denotes the concentration at which inhibition is half-maximal.
